Biological target: T1, HEK cells stably transfected with tetracycline inducible hNR1 and hNR2A (Homo sapiens, UniProt Q05586+Q12879)
T1 construct: expressed in transfected cells; host or cells: HEK cells, stably transfected, tetracycline/doxycycline inducible
Assay: Assay 1: Cell-Based Assay, cytosolic calcium response to positive allosteric modulators (with 30 μM glycine and 300 nM L-glutamate, EC30)
Conditions: for EC50: cytosolic calcium response, with 30 μM glycine and 300 nM L-glutamate (EC30), — = no plateau was reached; for Max %: responses scaled relative to 100 μM L-glutamate maximal response (100%) and 0 μM L-glutamate (0%)
Method in brief: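 Cells induced 24 h with 7.5 μg mL^−1 doxycycline plus 500 μM (+)-ketamine, loaded 60 min at 37 °C with calcium dye in Mg-free HBSS (1.8 mM Ca, probenecid, 10 μM (+)-ketamine, pH 7.15). Peak RFU over 5 min after compound addition, scaled to 100 μM L-glutamate (100%) and 0 μM (0%); four-parameter Hill fit for EC50, max % if no plateau.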

T1 sequence (Q12879 23-1464, other chains not shown): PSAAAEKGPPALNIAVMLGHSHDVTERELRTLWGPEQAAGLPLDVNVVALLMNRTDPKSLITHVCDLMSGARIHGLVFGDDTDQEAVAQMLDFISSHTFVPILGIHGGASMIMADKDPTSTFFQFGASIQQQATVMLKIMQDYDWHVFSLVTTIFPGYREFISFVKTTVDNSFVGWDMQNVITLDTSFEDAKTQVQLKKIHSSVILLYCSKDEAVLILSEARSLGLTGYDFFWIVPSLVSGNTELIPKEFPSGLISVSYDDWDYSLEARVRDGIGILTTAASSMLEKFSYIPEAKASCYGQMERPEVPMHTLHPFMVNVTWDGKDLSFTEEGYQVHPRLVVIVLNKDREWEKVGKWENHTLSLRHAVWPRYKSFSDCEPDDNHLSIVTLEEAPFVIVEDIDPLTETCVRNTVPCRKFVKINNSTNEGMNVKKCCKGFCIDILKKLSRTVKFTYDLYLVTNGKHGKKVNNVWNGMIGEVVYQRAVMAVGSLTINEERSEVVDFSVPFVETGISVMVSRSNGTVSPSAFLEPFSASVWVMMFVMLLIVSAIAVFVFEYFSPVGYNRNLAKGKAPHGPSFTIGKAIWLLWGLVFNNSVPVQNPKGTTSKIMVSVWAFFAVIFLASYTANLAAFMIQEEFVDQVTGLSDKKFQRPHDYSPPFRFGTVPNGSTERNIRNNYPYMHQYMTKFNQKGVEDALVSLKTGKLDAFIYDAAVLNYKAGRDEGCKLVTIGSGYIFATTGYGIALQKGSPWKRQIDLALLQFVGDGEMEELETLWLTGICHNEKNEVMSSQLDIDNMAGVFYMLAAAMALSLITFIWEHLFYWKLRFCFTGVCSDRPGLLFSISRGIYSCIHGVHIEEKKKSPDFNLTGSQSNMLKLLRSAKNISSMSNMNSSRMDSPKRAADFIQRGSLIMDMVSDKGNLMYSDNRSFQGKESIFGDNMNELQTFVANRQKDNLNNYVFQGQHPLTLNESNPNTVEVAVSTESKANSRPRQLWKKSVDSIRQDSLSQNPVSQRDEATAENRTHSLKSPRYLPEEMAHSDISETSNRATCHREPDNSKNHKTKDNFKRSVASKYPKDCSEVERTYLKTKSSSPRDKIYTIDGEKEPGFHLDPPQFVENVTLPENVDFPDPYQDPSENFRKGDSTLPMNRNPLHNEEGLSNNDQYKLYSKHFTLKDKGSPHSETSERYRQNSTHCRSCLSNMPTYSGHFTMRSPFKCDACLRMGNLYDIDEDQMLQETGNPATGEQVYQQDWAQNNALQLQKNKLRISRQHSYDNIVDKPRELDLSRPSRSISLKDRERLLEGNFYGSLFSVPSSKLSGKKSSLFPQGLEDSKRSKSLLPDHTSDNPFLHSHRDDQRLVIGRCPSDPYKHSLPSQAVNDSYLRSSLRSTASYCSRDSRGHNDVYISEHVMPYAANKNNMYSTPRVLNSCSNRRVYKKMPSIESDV

EC50 (Table 2)	Max % (Table 2)	EC50 (Table 3)	SMILES
12.3 µM	131%	–	CCNC(=O)c1c(C)sc2nc(Cc3cccc(C#N)c3F)cc(=O)n12 [Example 21.13, 7-(3-cyano-2-fluorobenzyl)-N-ethyl-2-methyl-5-oxo-5H-thiazolo[3,2-a]pyrimidine-3-carboxamide]
0.0329 µM	162%	–	Cc1sc2nc(CN(CCF)c3ccc(F)cc3)cc(=O)n2c1C1CC1CO (single isomer, unassigned) [Example 5.42, 7-[[4-fluoro-N-(2-fluoroethyl)anilino]methyl]-3-trans-2-(hydroxymethyl)cyclopropyl]-2-methyl-thiazolo[3,2-a]pyrimidin-5-one]
2.4 µM	93.9%	–	Cc1sc2nc(COc3ccc(F)cc3)cc(=O)n2c1C1CC1C#N (single isomer, unassigned) [Example 4.20, cis-2-[7-(4-Fluorophenoxymethyl)-2-methyl-5-oxo-5H-[1,3]thiazolo[3,2-a]pyrimidin-3-yl]cyclopropane-1-carbonitrile]
2.5 µM	126%	–	Cc1sc2nc(CN3c4ccccc4CC3C)cc(=O)n2c1C#N (stereo not drawn) [Example 7.8, 2-methyl-7-((2-methylindolin-1-yl)methyl)-5-oxo-5H-thiazolo[3,2-a]pyrimidine-3-carbonitrile]
16.9 µM	88.2%	–	CCN(Cc1cc(=O)n2c(C(C)(C)C)csc2n1)c1ccc(F)cc1 [Example 10.18, 3-tert-butyl-7-[(N-ethyl-4-fluoro-anilino)methyl]thiazolo[3,2-a]pyrimidin-5-one]
–	–	0.154 µM	CCNC(=O)c1c(C(F)(F)F)sc2nc(CN(CC)c3ccc(F)cc3)cc(=O)n12 [compound 83, N-ethyl-7-[(N-ethyl-4-fluoro-anilino)methyl]-5-oxo-2-(trifluoromethyl)thiazolo[3,2-a]pyrimidine-3-carboxamide]
–	84.3%	–	CCNC(=O)c1c(C)sc2nc(Cc3cc(F)ccc3Cl)cc(=O)n12 [Example 21.32, 7-(2-chloro-5-fluorobenzyl)-N-ethyl-2-methyl-5-oxo-5H-thiazolo[3,2-a]pyrimidine-3-carboxamide]
–	–	5.26 µM	CC(=O)c1c(C(F)(F)F)sc2nc(Cn3nc(Cl)cc3C(F)(F)F)cc(=O)n12 [compound 167, 3-acetyl-7-[[3-chloro-5-(trifluoromethyl)pyrazol-1-yl]methyl]-2-(trifluoromethyl)thiazolo[3,2-a]pyrimidin-5-one]
5.1 µM	120%	–	CCN(Cc1cc(=O)n2c(-c3cncc(OC)c3)c(C)sc2n1)c1ccc(F)cc1 [Example 5.58, 7-[(N-ethyl-4-fluoro-anilino)methyl]-3-(5-methoxy-3-pyridyl)-2-methyl-thiazolo[3,2-a]pyrimidin-5-one]
–	–	0.327 µM	Cc1sc2nc(Cn3nc(C(F)(F)F)cc3Cl)cc(=O)n2c1-c1cncc(C#N)c1 [compound 197, 5-[7-[[5-chloro-3-(trifluoromethyl)pyrazol-1-yl]methyl]-2-methyl-5-oxo-thiazolo[3,2-a]pyrimidin-3-yl]pyridine-3-carbonitrile]
12.2 µM	116%	–	Cc1sc2nc(C(C)n3nc(C(F)(F)F)cc3C3CC3)cc(=O)n2c1[C@@H]1C[C@H]1CO (relative stereo) [Example 19.1, 7-(1-(5-cyclopropyl-3-(trifluoromethyl)-1H-pyrazol-1-yl)ethyl)-3-(trans-2-(hydroxymethyl)cyclopropyl)-2-methyl-5H-thiazolo[3,2-a]pyrimidin-5-one]
–	–	52 µM	Cc1sc2nc(Cc3cccc(C(F)(F)F)c3F)cc(=O)n2c1Cc1ncc[nH]1 [compound 81, 7-[[2-fluoro-3-(trifluoromethyl)phenyl]methyl]-3-(1H-imidazol-2-ylmethyl)-2-methyl-thiazolo[3,2-a]pyrimidin-5-one]
–	–	10.2 µM	CCNC(=O)c1c(C)sc2nc(Cn3nc(C)cc3Cl)cc(=O)n12 [compound 20, 7-[(5-chloro-3-methyl-pyrazol-1-yl)methyl]-N-ethyl-2-methyl-5-oxo-thiazolo[3,2-a]pyrimidine-3-carboxamide]
–	–	2.39 µM	CC1CC1c1c(Cl)sc2nc(Cc3cccc(C#N)c3F)cc(=O)n12 (stereo not drawn) [compound 85, 3-[[2-chloro-3-(2-methylcyclopropyl)-5-oxo-thiazolo[3,2-a]pyrimidin-7-yl]methyl]-2-fluoro-benzonitrile]
5.7 µM	166%	–	CCN(Cc1cc(=O)n2c(C#N)csc2n1)c1ccc(F)cc1 [Example 7.4, 7-[(N-ethyl-4-fluoro-anilino)methyl]-5-oxo-thiazolo[3,2-a]pyrimidine-3-carbonitrile]
3.1 µM	137%	–	Cc1sc2nc(Cc3cccc(C#N)c3)cc(=O)n2c1C1CC1CO (stereo not drawn) [Example 20.1, 3-((3-(trans-2-(hydroxymethyl)cyclopropyl)-2-methyl-5-oxo-5H-thiazolo[3,2-a]pyrimidin-7-yl)methyl)benzonitrile]

EC50 (Table 2)	Max % (Table 2)	EC50 (Table 3)	SMILES
–	–	0.169 µM	Cc1sc2nc(Cn3nc(C(F)(F)F)cc3Cl)cc(=O)n2c1C1CC1C (stereo not drawn) [compound 118, 7-[[5-chloro-3-(trifluoromethyl)pyrazol-1-yl]methyl]-2-methyl-3-(2-methylcyclopropyl)thiazolo[3,2-a]pyrimidin-5-one]
–	–	6.33 µM	O=c1cc(Cn2nc(C(F)(F)F)cc2Cl)nc2sc(C(F)(F)F)c(-c3cncc(F)c3)n12 [compound 249, 7-[[5-chloro-3-(trifluoromethyl)pyrazol-1-yl]methyl]-3-(5-fluoro-3-pyridyl)-2-(trifluoromethyl)thiazolo[3,2-a]pyrimidin-5-one]
–	–	3.85 µM	Cc1sc2nc(Cn3nc(C(F)(F)F)cc3Cl)cc(=O)n2c1Cn1cccn1 [compound 186, 7-[[5-chloro-3-(trifluoromethyl)pyrazol-1-yl]methyl]-2-methyl-3-(pyrazol-1-ylmethyl)thiazolo[3,2-a]pyrimidin-5-one]
0.815 µM	157%	–	CCN(Cc1cc(=O)n2c(-c3cscn3)c(C)sc2n1)c1ccc(F)cc1 [Example 5.20, 7-[(N-ethyl-4-fluoro-anilino)methyl]-2-methyl-3-thiazol-4-yl-thiazolo[3,2-a]pyrimidin-5-one]
9.6 µM	63%	–	Cc1sc2nc(COc3ccc(F)cc3)cc(=O)n2c1C(=O)NCC#N [Example 1.1, N-(cyanomethyl)-7-((4-fluorophenoxy)methyl)-2-methyl-5-oxo-5H-thiazolo[3,2-a]pyrimidine-3-carboxamide]
–	–	0.538 µM	Cc1sc2nc(Cn3nc(C(F)(F)F)cc3Cl)cc(=O)n2c1-c1cscn1 [compound 151, 7-[[5-chloro-3-(trifluoromethyl)pyrazol-1-yl]methyl]-2-methyl-3-thiazol-4-yl-thiazolo[3,2-a]pyrimidin-5-one]
–	–	62.6 µM	CNC(=O)c1c(C)sc2nc(Cn3cc(C(F)(F)F)cn3)cc(=O)n12 [compound 72, N,2-dimethyl-5-oxo-7-[[4-(trifluoromethyl)pyrazol-1-yl]methyl]thiazolo[3,2-a]pyrimidine-3-carboxamide]
–	–	0.359 µM	Cc1sc2nc(CN(C)c3ccc(Cl)cn3)cc(=O)n2c1C1CC1CO (stereo not drawn) [compound 163, 7-[[(5-chloro-2-pyridyl)-methyl-amino]methyl]-3-[2-(hydroxymethyl)cyclopropyl]-2-methyl-thiazolo[3,2-a]pyrimidin-5-one]
–	107%	–	Cc1sc2nc(Cn3ccc(C(F)(F)F)n3)cc(=O)n2c1C#N [Example 17.1, 2-methyl-5-oxo-7-((3-(trifluoromethyl)-1H-pyrazol-1-yl)methyl)-5H-thiazolo[3,2-a]pyrimidine-3-carbonitrile]
–	–	1.37 µM	O=c1cc(Cn2nc(C(F)(F)F)cc2Cl)nc2sc(C(F)(F)F)c(N3CC(F)C3)n12 [compound 254, 7-[[5-chloro-3-(trifluoromethyl)pyrazol-1-yl]methyl]-3-(3-fluoroazetidin-1-yl)-2-(trifluoromethyl)thiazolo[3,2-a]pyrimidin-5-one]
–	–	1.39 µM	CC1CC1c1c(C(F)(F)F)sc2nc(Cn3nc(C(F)(F)F)cc3Cl)cc(=O)n12 (stereo not drawn) [compound 199, 7-[[5-chloro-3-(trifluoromethyl)pyrazol-1-yl]methyl]-3-(2-methylcyclopropyl)-2-(trifluoromethyl)thiazolo[3,2-a]pyrimidin-5-one]
0.952 µM	167%	–	CCN(Cc1cc(=O)n2c([C@@H]3C[C@H]3CF)c(C)sc2n1)c1ccc(F)cc1 (relative stereo) [Example 5.39, 7-((ethyl(4-fluorophenyl)amino)methyl)-3-(trans-2-(fluoromethyl)cyclopropyl)-2-methyl-5H-thiazolo[3,2-a]pyrimidin-5-one]
–	–	0.551 µM	Cc1sc2nc(Cn3nc(C(F)(F)F)cc3Cl)cc(=O)n2c1C(=O)NCC(F)(F)F [compound 65, 7-[[5-chloro-3-(trifluoromethyl)pyrazol-1-yl]methyl]-2-methyl-5-oxo-N-(2,2,2-trifluoroethyl)thiazolo[3,2-a]pyrimidine-3-carboxamide]
–	–	0.0364 µM	N#CC1CC1c1c(C(F)(F)F)sc2nc(Cn3nc(C(F)(F)F)cc3Cl)c(F)c(=O)n12 (single isomer, unassigned) [compound 276]
–	43.8%	–	CNC(=O)c1c(C)sc2nc(Cc3cccc(F)c3F)cc(=O)n12 [Example 21.55, 7-[(2,3-difluorophenyl)methyl]-N,2-dimethyl-5-oxo-thiazolo[3,2-a]pyrimidine-3-carboxamide]

SMILES	EC50 (Table 2)	Max % (Table 2)	EC50 (Table 3)
CNC(=O)c1c(C)sc2nc(Cc3cccc(C(F)(F)F)c3F)cc(=O)n12 [Example 21.4]	7.4 µM	129%	–

Reference: patent US9988400B2 (Genentech, Inc., priority 2013, dated 2018)
